{"source": "patent US11701372B2", "about": "“Inhalation formulations of 1'-cyano substituted carba-nucleoside analogs” (priority 2020, dated 2023)", "key": {"[1]": {"details": "both, monkey, in vivo, 0.168 mg/kg", "procedure": "(§1) The average deposited dose was calculated at 0.168 mg/kg and 0.536 mg/kg, respectively. Plasma, peripheral blood mononuclear cells (PBMCs), trachea, bronchi, lung lobe, liver, kidney, nasal mucosa and nasopharyngeal mucosa samples were collected in this study."}, "[2]": {"experiment": "Plasma PK of Formula Ia and metabolites after inhalation in African Green Monkeys", "details": "both, monkey, in vivo", "procedure": "as §1"}, "in vivo": {"experiment": "in vivo", "details": "both, monkey, 0.168 mg/kg", "procedure": "as §1"}, "[3]": {"experiment": "Respiratory tissue concentrations after inhalation in African Green Monkeys", "details": "24 hours", "procedure": "as §1"}, "[4]": {"experiment": "PBMC concentrations of metabolites after inhalation in African Green Monkeys", "details": "both, monkey, in vivo", "procedure": "as §1"}, "[5]": {"assay_type": "physicochemical", "protocol": "For each conditions, the physical stability was measured as % LS and compared to % LS at T=0."}, "SARS-CoV2-Nano viruses": {"tested_on": "SARS-CoV2-Nano viruses", "experiment": "SARS-CoV-2 antiviral screening (A549-hACE2 cells, Nano luciferase)", "assay_type": "cell-based", "details": "Severe acute respiratory syndrome coronavirus 2, 48 h"}, "[6]": {"experiment": "Characterisation of milled suspension formulations (osmolarity, pH, particle size)", "assay_type": "physicochemical", "details": "0.5% w/v poloxamer 237, 0.9% sodium chloride", "protocol": "The vial capped, vortexed briefly, and then placed in a Bertin Instruments Precellys® Evolution blender. The blender was used to wet mill the mixture for 15×30 second cycles, with 120 second rest time between cycles. The blender speed was 7,200 rpm and cooling set was set to high. After milling, the milled suspension was separated from the beads by withdrawing the suspension from the vial using a syringe with a 1.5'' 25G needle. The recovered volume of the concentrated suspension was noted as 2.97 mL, and the concentration was measured as 25.8 mg/mL. The suspension was diluted with 2.14 mL of vehicle to obtain the target concentration of 15 mg/mL. […] The chiller set to 30° F., pump set to 100 rpm, and agitator set to 3000 rpm. The pump was primed with 100 mL of vehicle, and the first 80 mL of flowthough from priming was sent to waste. The mill was then set to recirculate as feeding continued with the addition of 150 mL of pre-mill formulation intermediate, followed by 25 mL of vehicle rinse. The formulation was allowed to recirculate though the mill for 1 hr, after which the flow was directed to a collection bottle. After 100 mL of concentrated suspension formulation was collected in the bottle, a vehicle chase was fed into the mill. Collection was stopped when the recovered volume reached 250 mL."}, "[7]": {"experiment": "Nebulizer performance (PARI LC Sprint jet nebulizer)", "assay_type": "physicochemical", "details": "5 mg/mL Formula Ia, 15% w/v SBECD, 8 mL charge; collected aerosol and residual solution"}, "[8]": {"details": "inhaled or intranasal, 0.168 mg/kg"}, "[9]": {"details": "inhaled or intranasal, 0.536 mg/kg"}, "[10]": {"details": "15 mg/mL in water with 0.1% w/v HPMC"}}, "note": "Where two headings read alike, the source gives them in different places.", "data": [{"smiles": "N#C[C@@]1(c2ccc3c(N)ncnn23)O[C@H](CO)[C@@H](O)[C@H]1O", "note": "[Compound A]", "values": [{"measurement": "mean estimated terminal elimination half-life", "setting": "[1]", "value": 7.58, "unit": "h"}, {"measurement": "concentration at 0.25 h", "setting": "[2]; 0.168 mg/kg", "value": "3 ± 1", "unit": "nM"}, {"measurement": "concentration at 1 h", "setting": "[2]; 0.168 mg/kg", "value": "31 ± 7", "unit": "nM"}, {"measurement": "concentration at 2 h", "setting": "[2]; 0.168 mg/kg", "value": "25 ± 5", "unit": "nM"}, {"measurement": "concentration at 24 h", "setting": "[2]; 0.168 mg/kg", "value": 2, "unit": "nM"}, {"measurement": "concentration at 0.75 h", "setting": "[2]; 0.536 mg/kg", "value": "29 ± 8", "unit": "nM"}, {"measurement": "concentration at 1.52 h", "setting": "[2]; 0.536 mg/kg", "value": "58 ± 3", "unit": "nM"}, {"measurement": "concentration at 2 h", "setting": "[2]; 0.536 mg/kg", "value": "71 ± 11", "unit": "nM"}, {"measurement": "concentration at 4 h", "setting": "[2]; 0.536 mg/kg", "value": "43 ± 9", "unit": "nM"}, {"measurement": "concentration at 8 h", "setting": "[2]; 0.536 mg/kg", "value": "22 ± 5", "unit": "nM"}, {"measurement": "concentration at 24 h", "setting": "[2]; 0.536 mg/kg", "value": "5 ± 1", "unit": "nM"}, {"measurement": "AUC(0-t)", "setting": "[2]; [8]", "value": "0.191 ± 0.03", "unit": "µM·h"}, {"measurement": "Cmax", "setting": "[2]; [8]", "value": "31 ± 7", "unit": "nM"}, {"measurement": "half-life", "setting": "[2]; [8]", "value": "7.58 ± 1.03", "unit": "h"}, {"measurement": "AUC(0-t)", "setting": "[2]; [9]", "value": "0.539 ± 0.076", "unit": "µM·h"}, {"measurement": "half-life", "setting": "[2]; [9]", "value": "7.1 ± 0.36", "unit": "h"}, {"measurement": "concentration at 24 h", "setting": "in vivo", "value": "302 ± 44", "unit": "nM"}, {"measurement": "Metabolite Concentrations", "setting": "[3]; Lower Lung Lobe, 0.168 mg/kg inhaled deposited dose, LOQ for A and C 0.154 nmol/g tissue", "value": "BLQ"}, {"measurement": "Metabolite Concentrations", "setting": "[3]; Lower Lung Lobe, 0.536 mg/kg inhaled deposited dose, LLOQ for A and C 0.154 nmol/g tissue", "value": "BLQ"}, {"measurement": "Metabolite Concentrations", "setting": "[3]; Upper Bronchi, 0.168 mg/kg inhaled deposited dose, LOQ for A and C 0.154 nmol/g tissue", "value": "BLQ"}, {"measurement": "Metabolite Concentrations", "setting": "[3]; Upper Bronchi, 0.536 mg/kg inhaled deposited dose, LLOQ for A and C 0.154 nmol/g tissue", "value": "BLQ"}, {"measurement": "Metabolite Concentrations", "setting": "[3]; Upper Trachea, 0.168 mg/kg inhaled deposited dose, LOQ for A and C 0.154 nmol/g tissue", "value": "BLQ"}, {"measurement": "Metabolite Concentrations", "setting": "[3]; Upper Trachea, 0.536 mg/kg inhaled deposited dose, LLOQ for A and C 0.154 nmol/g tissue", "value": "BLQ"}, {"measurement": "concentration at 2 h", "setting": "[4]; 0.168 mg/kg", "value": "331 ± 92", "unit": "nM"}, {"measurement": "concentration at 24 h", "setting": "[4]; 0.536 mg/kg", "value": "457 ± 130", "unit": "nM"}]}, {"smiles": "CCC(CC)COC(=O)[C@H](C)N[P@](=O)(OC[C@H]1O[C@@](C#N)(c2ccc3c(N)ncnn23)[C@H](O)[C@@H]1O)Oc1ccccc1", "note": "[Formula Ia, (S)-2-ethylbutyl 2-(((S)-(((2R,3S,4R,5R)-5-(4-aminopyrrolo[2,1-f][1,2,4]triazin-7-yl)-5-cyano-3,4-dihydroxytetrahydrofuran-2-yl)methoxy)(phenoxy)phosphoryl)amino)propanoate]", "values": [{"measurement": "physical stability", "setting": "[5]", "value": "stable"}, {"measurement": "% LS T0", "setting": "[5]; pH 3.8", "value": 99, "unit": "% LS"}, {"measurement": "% LS After Stress, Hold", "setting": "[5]; pH 3.8, 2-8° C. (1 wk)", "value": 99, "unit": "% LS"}, {"measurement": "% LS After Stress, Hold After Seeding", "setting": "[5]; pH 3.8, 2-8° C. (1 wk)", "value": 88, "unit": "% LS"}, {"measurement": "% LS After Stress, Hold", "setting": "[5]; pH 3.8, 2-8° C. (48 h)", "value": 99, "unit": "% LS"}, {"measurement": "% LS After Stress, Hold After Seeding", "setting": "[5]; pH 3.8, 2-8° C. (48 h)", "value": 99, "unit": "% LS"}, {"measurement": "% LS After Stress, Hold", "setting": "[5]; pH 3.8, 2-8° C. (72 h)", "value": 99, "unit": "% LS"}, {"measurement": "% LS After Stress, Hold After Seeding", "setting": "[5]; pH 3.8, 2-8° C. (72 h)", "value": 99, "unit": "% LS"}, {"measurement": "% LS After Stress, Hold", "setting": "[5]; pH 3.8, 2-8° C., 24 h", "value": 100, "unit": "% LS"}, {"measurement": "% LS After Stress, Hold After Seeding", "setting": "[5]; pH 3.8, 2-8° C., 24 h", "value": 100, "unit": "% LS"}, {"measurement": "% LS After Stress, Freeze-thaw (3X)", "setting": "[5]; pH 3.8, (+) seed", "value": 99, "unit": "% LS"}, {"measurement": "% LS After Stress, Freeze-thaw (3X)", "setting": "[5]; pH 3.8, (−) seed", "value": 99, "unit": "% LS"}, {"measurement": "% LS After Stress, Hold", "setting": "[5]; pH 3.8, RT (1 wk)", "value": 99, "unit": "% LS"}, {"measurement": "% LS After Stress, Hold After Seeding", "setting": "[5]; pH 3.8, RT (1 wk)", "value": 65, "unit": "% LS"}, {"measurement": "% LS After Stress, Hold", "setting": "[5]; pH 3.8, RT (24 h)", "value": 100, "unit": "% LS"}, {"measurement": "% LS After Stress, Hold After Seeding", "setting": "[5]; pH 3.8, RT (24 h)", "value": 99, "unit": "% LS"}, {"measurement": "% LS After Stress, Hold", "setting": "[5]; pH 3.8, RT (48 h)", "value": 99, "unit": "% LS"}, {"measurement": "% LS After Stress, Hold After Seeding", "setting": "[5]; pH 3.8, RT (48 h)", "value": 99, "unit": "% LS"}, {"measurement": "% LS After Stress, Hold", "setting": "[5]; pH 3.8, RT (72 h)", "value": 99, "unit": "% LS"}, {"measurement": "% LS After Stress, Hold After Seeding", "setting": "[5]; pH 3.8, RT (72 h)", "value": 99, "unit": "% LS"}, {"measurement": "% LS T0", "setting": "[5]; pH 4.0", "value": 100, "unit": "% LS"}, {"measurement": "% LS After Stress, Hold", "setting": "[5]; pH 4.0, 2-8° C. (1 wk)", "value": 99, "unit": "% LS"}, {"measurement": "% LS After Stress, Hold", "setting": "[5]; pH 4.0, 2-8° C. (48 h)", "value": 99, "unit": "% LS"}, {"measurement": "% LS After Stress, Hold After Seeding", "setting": "[5]; pH 4.0, 2-8° C. (48 h)", "value": 79, "unit": "% LS"}, {"measurement": "% LS After Stress, Hold", "setting": "[5]; pH 4.0, 2-8° C. (72 h)", "value": 100, "unit": "% LS"}, {"measurement": "% LS After Stress, Hold After Seeding", "setting": "[5]; pH 4.0, 2-8° C. (72 h)", "value": 67, "unit": "% LS"}, {"measurement": "% LS After Stress, Hold", "setting": "[5]; pH 4.0, 2-8° C., 24 h", "value": 100, "unit": "% LS"}, {"measurement": "% LS After Stress, Hold After Seeding", "setting": "[5]; pH 4.0, 2-8° C., 24 h", "value": 96, "unit": "% LS"}, {"measurement": "% LS After Stress, Freeze-thaw (3X)", "setting": "[5]; pH 4.0, (+) seed", "value": 99, "unit": "% LS"}, {"measurement": "% LS After Stress, Freeze-thaw (3X)", "setting": "[5]; pH 4.0, (−) seed", "value": 99, "unit": "% LS"}, {"measurement": "% LS After Stress, Hold", "setting": "[5]; pH 4.0, RT (1 wk)", "value": 98, "unit": "% LS"}, {"measurement": "% LS After Stress, Hold", "setting": "[5]; pH 4.0, RT (24 h)", "value": 100, "unit": "% LS"}, {"measurement": "% LS After Stress, Hold After Seeding", "setting": "[5]; pH 4.0, RT (24 h)", "value": 69, "unit": "% LS"}, {"measurement": "% LS After Stress, Hold", "setting": "[5]; pH 4.0, RT (48 h)", "value": 99, "unit": "% LS"}, {"measurement": "% LS After Stress, Hold After Seeding", "setting": "[5]; pH 4.0, RT (48 h)", "value": 60, "unit": "% LS"}, {"measurement": "% LS After Stress, Hold", "setting": "[5]; pH 4.0, RT (72 h)", "value": 100, "unit": "% LS"}, {"measurement": "% LS After Stress, Hold After Seeding", "setting": "[5]; pH 4.0, RT (72 h)", "value": 58, "unit": "% LS"}, {"measurement": "EC50", "setting": "SARS-CoV2-Nano viruses", "value": 110, "unit": "nM"}, {"measurement": "osmolarity", "setting": "[6]; [10]", "value": 285, "unit": "mOsm/kg"}, {"measurement": "pH", "setting": "[6]; [10]", "value": 6.89}, {"measurement": "volume mean diameter particle size", "setting": "[6]; [10]", "value": 3.65, "unit": "μm"}, {"measurement": "particle size by polarized light microscopy", "setting": "[6]; 100 mg/mL in water with 0.1% w/v HPMC", "value": "< 5", "unit": "μm"}, {"measurement": "change in % peak area for Formula Ia or its identified impurities after nebulization", "setting": "[7]", "value": "No significant change"}]}]}
